Experimental data taken from US20230123334A1, “AMINO LIPID COMPOUND, PREPARATION METHOD THEREFOR, AND APPLICATION THEREOF” (SHENZHEN SHENXIN BIOTECHNOLOGY CO., LTD., priority 2020, published 2023).

system: HEK293 cells; assay: Preliminary screening as mRNA vectors, EGFP mRNA transfection of HEK293 cells; type: cell-based; conditions: EGFP mRNA 50 ng per well, 96-well plates; percentage of GFP fluorescent cells relative to total number of cells (Hoechst)
Description: Cell line: HEK293 cells (ATCC CRL-1573™)
Medium: DMEM supplemented with 10% fetal bovine serum (Invitrogen)
Screening: cell transfection on 96-well plates
Detection (readout): percentage of the number of GFP fluorescent cells relative to the total number of cells (the total number of cells was determined using nucleus dye Hoechst). Lipofectamine2000 (Invitrogen) was used as the positive control.
Method: the experimental method was basically the same with Example 4, and the mass of EGFP mRNA (TriLink) for transfection was 50 ng per well.

SMILES	Absolute mRNA transfection efficiency in HEK293 cells
CCCCCCCNc1nc(NCCN(C)C)nc(SCCCCCCC)n1 [Compound D1S7N7]	4.4%
CCCCCCCCCCCCSc1nc(NCCN(CC)CC)nc(SCCCCCCCC)n1 [Compound D7S8S12]	1.3%
CCCCCCCCCCCCCCCCCCSc1nc(NCCCCCC)nc(NCC2CCN(C)CC2)n1 [Compound D10S18N6]	58.8%
CCCCCCCCCCCCCCCCCCSc1nc(NCCCCCCCCCCCCC)nc(NCCN2CCCC2)n1 [Compound D3S18N13]	1.0%
CCCCCCCCCCCCSc1nc(NCCN2CCCCC2)nc(SCCCCCCCC)n1 [Compound D4S8S12]	1.0%
CCCCCCCCCCCCSc1nc(NCCCN(C)C)nc(N(CCCCCCCCCCCC)CCCCCCCCCCCC)n1 [D6S12^2N12]	2.4%
CCCCCCCCCCCCSc1nc(NCCN(C)C)nc(N(CCCCCCCCCCCC)CCCCCCCCCCCC)n1 [D1S12^2N12]	2.6%
CCCCCCCCCCCNc1nc(NCCN2CCCC2)nc(SCCCCCCCCC)n1 [Compound D3S9N11]	47.8%
CCCCCCCCCCCNc1nc(NCCN(CC)CC)nc(SCCCCCCCC)n1 [Compound D7S8N11]	9.0%
CCCCCCCCCCCCNc1nc(NCCN2CCCC2)nc(SCCCCCCCCCC)n1 [Compound D3S10N12]	19.1%
CCCCCCCCCCCCNc1nc(NCCN(C)C)nc(SCCCCCC)n1 [Compound D1S6N12]	0.0%
CCCCCCCCCCCCCCCNc1nc(NCCCN(C)C)nc(SCCCCCC)n1 [Compound D6S6N15]	12.1%
CCCCCCCCCCCCCCCNc1nc(NCCN2CCOCC2)nc(SCCCCCC)n1 [Compound D2S6N15]	1.2%
CCCCCCNc1nc(NCCCN(C)C)nc(SCCCCCC)n1 [Compound D6S6N6]	0.0%
CCCCCCCCCCCCSc1nc(NCCCCCC)nc(NCCN2CCCCC2)n1 [Compound D4S12N6]	0.9%
CCCCCCCCSc1nc(NCCCCCC)nc(NCCCN2CCOCC2)n1 [Compound D8S8N6]	1.0%
CCCCCCCCCSc1nc(NCCCCCCC)nc(NCCN2CCOCC2)n1 [Compound D2S9N7]	4.2%
CCCCCCCCCCCCN(CCCCCCCCCCCC)c1nc(NCCN2CCN(C)CC2)nc(SCCCCCCCCC)n1 [D5S9^2N12]	0.4%
CCCCCCCCCCCCCCCCCCNc1nc(NCCCN2CCN(C)CC2)nc(SCCCCCCCCCCCCCCC)n1 [Compound D9S15N18]	0.3%
CCCCCCCCCCCCCNc1nc(NCCN2CCOCC2)nc(SCCCCCCCC)n1 [Compound D2S8N13]	7.5%
CCCCCCCCCCCCNc1nc(NCCN2CCN(C)CC2)nc(SCCCCCCCC)n1 [Compound D5S8N12]	52.5%
CCCCCCCCCNc1nc(NCCN2CCCC2)nc(SCCCCCCC)n1 [Compound D3S7N9]	2.8%
CCCCCCCCCCCCSc1nc(NCCCCCCCC)nc(NCCCN2CCN(C)CC2)n1 [Compound D9S12N8]	20.1%
CCCCCCCCCCSc1nc(NCCCCCCCC)nc(NCCCN(C)C)n1 [Compound D6S10N8]	3.7%
CCCCCCCCCCCCCCCCCCSc1nc(NCCCCCCCC)nc(NCCN(C)C)n1 [Compound D1S18N8]	38.0%

SMILES	Absolute mRNA transfection efficiency in HEK293 cells
CCCCCCCCCCCCSc1nc(NCCCCCCC)nc(NCCN2CCOCC2)n1 [Compound D2S12N7]	0.4%
CCCCCCCCCCCCCCCCCCNc1nc(NCCN2CCN(C)CC2)nc(SCCCCCCCCC)n1 [Compound D5S9N18]	28.6%
CCCCCCCCCCCCCCCCNc1nc(NCCCN2CCOCC2)nc(SCCCCCCCCCCC)n1 [Compound D8S11N16]	0.7%
CCCCCCCCCCCCNc1nc(NCCCN2CCOCC2)nc(SCCCCCCC)n1 [Compound D8S7N12]	2.3%
CCCCCCCCCCCSc1nc(NCC2CCN(C)CC2)nc(SCCCCCC)n1 [Compound D10S6S11]	15.9%
CCCCCCCCCCCCCCCCSc1nc(NCCCCCCCCCCCCCCC)nc(NCCN(C)C)n1 [Compound D1S16N15]	1.4%
CCCCCCCCCCSc1nc(NCCCN2CCOCC2)nc(SCCCCCC)n1 [Compound D8S6S10]	4.2%
CCCCCCCCCCCCCCSc1nc(NCCN2CCCC2)nc(SCCCCCC)n1 [Compound D3S6S14]	0.3%
CCCCCCCNc1nc(NCCN(CC)CC)nc(SCCCCCCC)n1 [Compound D7S7N7]	3.9%
CCCCCCCCCCSc1nc(NCCCCCCCCC)nc(NCCN(C)C)n1 [Compound D1S10N9]	0.5%
CCCCCCCCCCCCCCCCSc1nc(NCCCCCCCCCCCCCCC)nc(NCCN2CCOCC2)n1 [Compound D2S16N15]	0.2%
CCCCCCCCCCCCCCCNc1nc(NCCN2CCCCC2)nc(SCCCCCCCCCC)n1 [Compound D4S10N15]	1.5%
CCCCCCCCCCCCCCCSc1nc(NCCCCCCCCCCCCC)nc(NCCCN2CCN(C)CC2)n1 [Compound D9S15N13]	2.0%
CCCCCCCCCCCCCCCCNc1nc(NCCN2CCCC2)nc(SCCCCCC)n1 [Compound D3S6N16]	37.3%
CCCCCCCCCCCCCCCCCCNc1nc(NCCN2CCCCC2)nc(SCCCCCCCCCC)n1 [Compound D4S10N18]	37.7%
CCCCCCCCCCCCCCCCNc1nc(NCCN2CCOCC2)nc(SCCCCCCCCCC)n1 [Compound D2S10N16]	0.6%
CCCCCCCCCCCCNc1nc(NCCCN2CCOCC2)nc(SCCCCCCCCC)n1 [Compound D8S9N12]	11.2%
CCCCCCCCCSc1nc(NCCCCCC)nc(NCCN2CCN(C)CC2)n1 [Compound D5S9N6]	2.9%
CCCCCCCCCCCCCCCCSc1nc(NCCCCCC)nc(NCCCN2CCOCC2)n1 [Compound D8S16N6]	18.2%
CCCCCCCCCCCCCCCCCCNc1nc(NCCCN2CCN(C)CC2)nc(SCCCCCCCCCCC)n1 [Compound D9S11N18]	14.9%
CCCCCCCCCCCCN(CCCCCCCCCCCC)c1nc(NCCCN(C)C)nc(SCCCCCCCCC)n1 [D6S9^2N12]	1.7%
CCCCCCCCCCCCCCCCCCSc1nc(NCCN2CCCC2)nc(SCCCCCCC)n1 [Compound D3S7S18]	7.9%
CCCCCCCCCCSc1nc(NCCCN(C)C)nc(SCCCCCCC)n1 [Compound D6S7S10]	18.1%
CCCCCCCCCCCCCCCCCCSc1nc(NCCN(C)C)nc(N(CCCCCCCCCCCC)CCCCCCCCCCCC)n1 [D1S18^2N12]	0.0%
CCCCCCCCCCCCCCCSc1nc(NCCCN2CCN(C)CC2)nc(SCCCCCCC)n1 [Compound D9S7S15]	9.6%
